# From patent publication US9216173B2, “2-Pyridyl carboxamide-containing spleen tyrosine kinase (SYK) inhibitors” (Merck Sharp & Dohme Corp., priority 2011, dated 2015)
# Molecular target: T1, recombinant human GST-SYK (Homo sapiens, UniProt P43405)
# T1 construct: purchased Carna Biosciences 08-176
# Experiment: Homogeneous Time-Resolved Fluorescence (HTRF) assay for the recombinant human Syk enzyme
# Format: biochemical
# Details: GST-hSYK 5 pM, ATP 25 μM, 10-dose titration 10 μM to 0.508 nM; read-out: IC50
# Procedure: Homogeneous Time-Resolved Fluorescence (HTRF) Assay for the Recombinant Human Syk Enzyme
# A recombinant GST-hSYK fusion protein was used to measure potency of compounds to inhibit human Syk activity. […] Final volume of the reaction was 10 μL. Phosphorylation of the peptide was allowed to proceed for 45 minutes at room temperature. To quench the reaction and detect the phosphorylated product, 2 nM of a Europium-anti-phosphotyrosine antibody (Perkin Elmer #AD0161) and 70 nM SA-APC (Perkin-Elmer #CR130-100) were added together in 15 mM Tris pH 7.5, 40 mM EDTA, 0.01% tween 20. Final volume of the quenching solution was 10 μL. The resulting HTRF signal was measured after 30 minutes on an EnVision (Perkin-Elmer) reader using a time-resolved fluorescence protocol.
row,SMILES,IC50 [nM]
1,"Cc1cc(C)nc(Nc2cc(N[C@@H](CC(C)C)C(N)=O)cnc2C(N)=O)c1 [Example 1.46, N^2-{6-carbamoyl-5-[(4,6-dimethylpyridin-2-yl)amino]pyridin-3-yl}- -leucinamide]",7.8
2,"Cc1nc(C)c(Cl)c(Nc2cc(N[C@@H]3CCCC[C@@H]3N)cnc2C(N)=O)n1 [Example 1.126, 5-{[(1R,2S)-2-aminocyclohexyl]amino}-3-[(5-chloro-2,6-dimethylpyrimidin-4-yl)amino]pyridine-2-carboxamide]",1300
3,"Cn1ccc(Nc2cc(N[C@H]3[C@@H](N)CCCC3(F)F)cnc2C(N)=O)n1 [Example 1.86, 5-{[(1S,6S)-6-amino-2,2-difluorocyclohexyl]amino}-3-[(1-methyl-1H-pyrazol-3-yl)amino]pyridine-2-carboxamide]",63
4,"Cn1ccc(Nc2cc(N[C@@H]3CS(=O)(=O)CC[C@@H]3N)cnc2C(N)=O)n1 (relative stereo) [Example 1.89, rel-5-{[(3S,4S)-4-amino-1,1-dioxidotetrahydro-2H-thiopyran-3-yl]amino}-3-[(1-methyl-1H-pyrazol-3-yl)amino]pyridine-2-carboxamide]",340

# Same assay, conditions: GST-hSYK 5 pM, ATP 25 μM, 10-dose titration 10 μM to 0.508 nM; read-out: rhSYK Activity (IC50 rating)
row,SMILES,IC50 [nM]
1,"Cc1nc(C)c(Cl)c(Nc2cc(N[C@@H]3CCCC[C@@H]3N)cnc2C(N)=O)n1 [Example 1.126, 5-{[(1R,2S)-2-aminocyclohexyl]amino}-3-[(5-chloro-2,6-dimethylpyrimidin-4-yl)amino]pyridine-2-carboxamide]",1000 to 10000
2,"Cc1cc(Nc2cc(N[C@@H]3CCCC[C@@H]3N)cnc2C(N)=O)nc(-n2nccn2)c1 [Example 1.102, 5-{[(1R,2S)-2-aminocyclohexyl]amino}-3-{[4-methyl-6-(2H-1,2,3-triazol-2-yl)pyridin-2-yl]amino}pyridine-2-carboxamide]",< 10
3,"NC(=O)c1ncc(N[C@@H]2CCCC[C@@H]2N)cc1Nc1cnn(-c2ccccc2)n1 [Example 1.51, 5-{[(1R,2S)-2-aminocyclohexyl]amino}-3-[(2-phenyl-2H-1,2,3-triazol-4-yl)amino]pyridine-2-carboxamide]",< 10
4,"Cc1nc(Nc2cc(N[C@@H]3CCCC[C@@H]3N)cnc2C(N)=O)ccc1-c1ccc2c(=O)nc[nH]c2c1 [Example 3.21, 5-{[(1R,2S)-2-aminocyclohexyl]amino}-3-{[6-methyl-5-(4-oxo-1,4-dihydroquinazolin-7-yl)pyridin-2-yl]amino}pyridine-2-carboxamide]",< 10
5,"NC(=O)c1ncc(N[C@@H]2CCCC[C@@H]2N)cc1Nc1cccc(-c2ccncc2)n1 [Example 1.27, 5-{[(1R,2S)-2-aminocyclohexyl]amino}-3-(2,4′-bipyridin-6-ylamino)pyridine-2-carboxamide]",< 10
6,"Cc1cc(C)nc(Nc2cc(N[C@@H]3CCOC[C@@H]3N)cnc2C(N)=O)c1 [Example 1.130, 5-{[(3R,4R)-3-aminotetrahydro-2H-pyran-4-yl]amino}-3-[(4,6-dimethylpyridin-2-yl)amino]pyridine-2-carboxamide]",< 10
7,"CCNC(=O)Nc1cnc(C(N)=O)c(Nc2cc(C)cc(C)n2)c1 [Example 15, 3-[(4,6-dimethylpyridin-2-yl)amino]-5-[(ethylcarbamoyl)amino]pyridine-2-carboxamide]",100 to 1000
8,"Cc1nc(Nc2cc(N[C@@H]3CCCC[C@@H]3N)cnc2C(N)=O)ccc1-c1cccc(N(C)S(C)(=O)=O)c1 [Example 3.19, 5-{[(1R,2S)-2-aminocyclohexyl]amino}-3-[(6-methyl-5-{3-[methyl(methylsulfonyl)amino]phenyl}pyridin-2-yl)amino]pyridine-2-carboxamide]",< 10
9,"Cc1nc(Nc2cc(N[C@@H]3CCCC[C@@H]3N)cnc2C(N)=O)ccc1-c1ccc(C(=O)O)cc1 [Example 3.5, 4-{6-[(5-{[(1R,2S)-2-aminocyclohexyl]amino}-2-carbamoylpyridin-3-yl)amino]-2-methylpyridin-3-yl}benzoic acid]",< 10
10,"NC(=O)c1ncc(N[C@@H]2CCCC[C@@H]2N)cc1Nc1ccc2nccn2n1 [Example 1.17, 5-{[(1R,2S)-2-aminocyclohexyl]amino}-3-(imidazo[1,2-b]pyridazin-6-ylamino)pyridine-2-carboxamide]",< 10
11,"Cc1nc(Nc2cc(N[C@@H]3CCCC[C@@H]3N)cnc2C(N)=O)ccc1-c1ccc(C(O)C(F)F)cc1 (stereo partly drawn) [Example 3.8, 5-{[(1R,2S)-2-aminocyclohexyl]amino}-3-({5-[4-(2,2-difluoro-1-hydroxyethyl)phenyl]-6-methylpyridin-2-yl}amino)pyridine-2-carboxamide]",< 10
12,"Cn1ccc(Nc2cc(N[C@H]3[C@@H](N)CCCC3(F)F)cnc2C(N)=O)n1 [Example 1.86, 5-{[(1S,6S)-6-amino-2,2-difluorocyclohexyl]amino}-3-[(1-methyl-1H-pyrazol-3-yl)amino]pyridine-2-carboxamide]",10 to 100
13,"Cn1ccc(Nc2cc(N[C@@H]3CS(=O)(=O)CC[C@@H]3N)cnc2C(N)=O)n1 (relative stereo) [Example 1.89, rel-5-{[(3S,4S)-4-amino-1,1-dioxidotetrahydro-2H-thiopyran-3-yl]amino}-3-[(1-methyl-1H-pyrazol-3-yl)amino]pyridine-2-carboxamide]",100 to 1000
14,"NC(=O)c1ncc(N[C@@H]2CCCC[C@@H]2N)cc1Nc1cc(Cl)cc(Cl)n1 [Example 1.73, 5-{[(1R,2S)-2-aminocyclohexyl]amino}-3-[(4,6-dichloropyridin-2-yl)amino]pyridine-2-carboxamide]",< 10
15,"Cc1ccc(-n2ccc(Nc3cc(N[C@@H]4CCCC[C@@H]4N)cnc3C(N)=O)n2)cc1 [Example 1.64, 5-{[(1R,2S)-2-aminocyclohexyl]amino}-3-{[1-(4-methylphenyl)-1H-pyrazol-3-yl]amino}pyridine-2-carboxamide]",< 10
16,"NC(=O)c1ncc(N[C@@H]2CCCC[C@@H]2N)cc1Nc1nc(Cl)ncc1F [Example 1.128, 5-{[(1R,2S)-2-aminocyclohexyl]amino}-3-[(2-chloro-5-fluoropyrimidin-4-yl)amino]pyridine-2-carboxamide]",10 to 100
17,"Cc1nc(Nc2cc(N[C@@H]3CCCC[C@@H]3N)cnc2C(N)=O)ccc1-c1cccc(C(O)C(F)(F)F)c1 (stereo partly drawn) [Example 3.11, 5-{[(1R,2S)-2-aminocyclohexyl]amino}-3-({6-methyl-5-[3-(2,2,2-trifluoro-1-hydroxyethyl)phenyl]pyridin-2-yl}amino)pyridine-2-carboxamide]",< 10

# The remaining lines, values ahead:
row,IC50 [nM],SMILES
1,< 10,"Cc1ccc(-n2ccc(Nc3cc(N[C@@H]4CCCC[C@@H]4N)cnc3C(N)=O)n2)cc1C [Example 1.66, 5-{[(1R,2S)-2-aminocyclohexyl]amino}-3-{[1-(3,4-dimethylphenyl)-1H-pyrazol-3-yl]amino}pyridine-2-carboxamide]"
2,10 to 100,"Cc1cccc(-c2ccc(Nc3cc(N[C@@H]4CCCC[C@@H]4N)cnc3C(N)=O)nc2C)c1O [Example 3.28, 5-{[(1R,2S)-2-aminocyclohexyl]amino}-3-{[5-(2-hydroxy-3-methylphenyl)-6-methylpyridin-2-yl]amino}pyridine-2-carboxamide]"
3,< 10,"Cc1cc(-n2nccn2)cc(Nc2cc(N[C@@H]3CCCC[C@@H]3N)cnc2C(N)=O)n1 [Example 1.76, 5-{[(1R,2S)-2-aminocyclohexyl]amino}-3-{[6-methyl-4-(2H-1,2,3-triazol-2-yl)pyridin-2-yl]amino}pyridine-2-carboxamide]"
4,10 to 100,"Cc1cc(C)nc(Nc2cc(NCCCN)cnc2C(N)=O)c1 [Example 14, 5-[(3-aminopropyl)amino]-3-[(4,6-dimethylpyridin-2-yl)amino]pyridine-2-carboxamide]"
5,< 10,"NC(=O)c1ncc(N[C@@H]2CCCC[C@@H]2N)cc1Nc1cccc(N2CCOCC2)n1 [Example 1.57, 5-{[(1R,2S)-2-aminocyclohexyl]amino}-3-[(6-morpholin-4-ylpyridin-2-yl)amino]pyridine-2-carboxamide]"
6,< 10,"Cn1ncc2c(Nc3cc(N[C@@H]4CCCC[C@@H]4N)cnc3C(N)=O)nc(-c3ccccc3)nc21 [Example 1.69, 5-{[(1R,2S)-2-aminocyclohexyl]amino}-3-[(1-methyl-6-phenyl-1H-pyrazolo[3,4-d]pyrimidin-4-yl)amino]pyridine-2-carboxamide]"
7,< 10,"Cc1nc(Nc2cc(N[C@@H]3CCCC[C@@H]3N)cnc2C(N)=O)ccc1-c1cccc(C(=O)O)c1 [Example 3.6, 3-{6-[(5-{[(1R,2S)-2-aminocyclohexyl]amino}-2-carbamoylpyridin-3-yl)amino]-2-methylpyridin-3-yl}benzoic acid]"
8,< 10,"NC(=O)c1ncc(N[C@H]2[C@@H](N)CCCC2(F)F)cc1Nc1cccc(C(F)(F)F)n1 [Example 1.106, 5-{[(1S,6S)-6-amino-2,2-difluorocyclohexyl]amino}-3-{[6-(trifluoromethyl)pyridin-2-yl]amino}pyridine-2-carboxamide]"
9,< 10,"Cc1nc(Nc2cc(N[C@@H]3CCCC[C@@H]3N)cnc2C(N)=O)ccc1-c1ccc(N2CCN(C)CC2)cc1 [Example 3.13, 5-{[(1R,2S)-2-aminocyclohexyl]amino}-3-({6-methyl-5-[4-(4-methylpiperazin-1-yl)phenyl]pyridin-2-yl}amino)pyridine-2-carboxamide]"
10,< 10,"Cc1cc(C)nc(Nc2cc(N[C@@H](CC(C)C)C(N)=O)cnc2C(N)=O)c1 [Example 1.45, N^2-{6-carbamoyl-5-[(4,6-dimethylpyridin-2-yl)amino]pyridin-3-yl}- -leucinamide]"
11,< 10,"CC(C)c1cccc(Nc2cc(N[C@@H]3CCCC[C@@H]3N)cnc2C(N)=O)n1 [Example 1.54, 5-{[(1R,2S)-2-aminocyclohexyl]amino}-3-{[6-(1-methylethyl)pyridin-2-yl]amino}pyridine-2-carboxamide]"
12,< 10,"Cc1nc(Nc2cc(N[C@@H]3CCCC[C@@H]3N)cnc2C(N)=O)ccc1-c1ccc2c(c1)C(=O)NC2 [Example 3.16, 5-{[(1R,2S)-2-aminocyclohexyl]amino}-3-{[6-methyl-5-(3-oxo-2,3-dihydro-1H-isoindol-5-yl)pyridin-2-yl]amino}pyridine-2-carboxamide]"
13,10 to 100,"Cc1cc(C(=O)N(C)C)cc(Nc2cc(N[C@@H]3CCCC[C@@H]3N)cnc2C(N)=O)n1 [Example 1.59, 5-{[(1R,2S)-2-aminocyclohexyl]amino}-3-{[4-(dimethylcarbamoyl)-6-methylpyridin-2-yl]amino}pyridine-2-carboxamide]"
